Results reported in patent publication US6737383B1, “Herbicidal oxadiazolidines” (priority 1999, dated 2004).

Experiments:
[1] = test system: rice; experiment: Test B flood test rice; type: in vivo, Oryza sativa
How it was run: (§1)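 Flood test on plants grown to the 2-leaf stage; treated plants kept in greenhouse twelve to sixteen days, then visually rated against controls on a 0 (no effect) to 10 (complete control) scale.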

[2] = test system: purple nutsedge; experiment: Test B pre/postemergence purple nutsedge; type: in vivo, Cyperus rotundus
How it was run: (§2)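 Response is a visual 0-to-10 score relative to untreated plants, where 0 means no effect and 10 means complete control, taken twelve to sixteen days after application. Treatments went onto soil at planting and onto foliage of 1- to 4-leaf plants, using a surfactant-containing non-phytotoxic solvent.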

[3] = test system: wheat; experiment: Test B pre/postemergence wheat; type: in vivo, Triticum aestivum
How it was run: as §2

[4] = test system: giant foxtail; experiment: Test B pre/postemergence giant foxtail; type: in vivo, Setaria faberii
How it was run: as §2

[5] = test system: morningglory; experiment: Test B pre/postemergence morningglory; type: in vivo, Ipomoea hederacea
How it was run: as §2

[6] = test system: velvetleaf; experiment: Test B pre/postemergence velvetleaf; type: in vivo, Abutilon theophrasti
How it was run: as §2

[7] = test system: soybean; experiment: Test B pre/postemergence soybean; type: in vivo, Glycine max
How it was run: as §2

[8] = test system: crabgrass; experiment: Test B pre/postemergence crabgrass; type: in vivo, Digitaria sanguinalis
How it was run: as §2

[9] = test system: pigweed; experiment: Test B pre/postemergence pigweed; type: in vivo, Amaranthus retroflexus
How it was run: as §2

[10] = test system: sugar beet; experiment: Test B pre/postemergence sugar beet; type: in vivo, Beta vulgaris
How it was run: as §2

[11] = test system: corn; experiment: Test B pre/postemergence corn; type: in vivo, Zea mays
How it was run: as §2

[12] = test system: rape; experiment: Test B pre/postemergence rape; type: in vivo, Brassica napus
How it was run: as §2

[13] = test system: bedstraw; experiment: Test B pre/postemergence bedstraw; type: in vivo, Galium aparine
How it was run: as §2

[14] = test system: bamyardgrass; experiment: Test B flood test barnyardgrass; type: in vivo, Echinochloa crus-galli
How it was run: as §1

[15] = test system: wild oat; experiment: Test B pre/postemergence wild oat; type: in vivo, Avena fatua
How it was run: as §2

[16] = test system: duck salad; experiment: Test B flood test duck salad; type: in vivo, Heteranthera limosa
How it was run: as §1

[17] = test system: surinam grass; experiment: Test B pre/postemergence surinam grass; type: in vivo, Brachiaria decumbens
How it was run: as §2

[18] = test system: smallflower flatsedge; experiment: Test B flood test smallflower flatsedge; type: in vivo, Cyperus difformis
How it was run: as §1

[19] = test system: cocklebur; experiment: Test B pre/postemergence cocklebur; type: in vivo, Xanthium strumarium
How it was run: as §2

[20] = test system: blackgrass; experiment: Test B pre/postemergence blackgrass; type: in vivo, Alopecurus myosuroides
How it was run: as §2

[21] = Rate 62 g/ha, headed Pre-emergence (flood test species), scale 0 to 10 (0 no effect, 10 complete control)
[22] = Rate 125 g/ha, Pre-emergence, flood test species, scale 0 to 10 where 0 is no effect and 10 is complete control
[23] = Rate 250 g/ha, Pre-emergence, flood-test species, scale 0 to 10, 0 is no effect, 10 is complete control
[24] = Rate 500 g/ha, headed Pre-emergence (flood test species), scale 0 to 10 (0 no effect, 10 complete control)
[25] = Preemergence, Rate 62 g/ha, scale of 0 to 10 where 0 is no effect and 10 is complete control
[26] = Preemergence, Rate 125 g/ha, 0 is no effect, 10 is complete control
[27] = Rate 62 g/ha, Postemergence, scale of 0 to 10 where 0 is no effect and 10 is complete control
[28] = Rate 125 g/ha, Postemergence, scale 0 to 10
[29] = Preemergence, Rate 250 g/ha, scale 0 to 10, 0 is no effect, 10 is complete control

Cc1ccccc1-n1c(=O)on(C(=O)N(c2ccc(F)cc2Cl)C(C)C)c1=O [Compound 186]
1: Morningglory plant response rating [5, 27] | Soybean plant response rating [7, 27] | Soybean plant response rating [7, 28]
6: Crabgrass plant response rating (0 to 10 scale) [8, 26] | Crabgrass plant response rating [8, 29]
5: Giant foxtail plant response rating [4, 25]
2: Plant response rating (0 to 10; 0 is no effect, 10 is complete control), Nutsedge ([2]; Rate 250 g/ha, Postemergence) | Morningglory plant response rating [5, 28] | Plant response rating (0 to 10; 0 is no effect, 10 is complete control), Morningglory ([5]; Rate 250 g/ha, Postemergence) | Velvetleaf plant response rating [6, 29] | Plant response rating (0 to 10; 0 is no effect, 10 is complete control), Soybean ([7]; Rate 250 g/ha, Postemergence) | Crabgrass plant response rating [8, 25] | Plant response rating (0 to 10; 0 is no effect, 10 is complete control), Crabgrass ([8]; Rate 250 g/ha, Postemergence) | Redroot pigweed plant response rating [9, 29]
8: Plant response rating (0 to 10; 0 is no effect, 10 is complete control), Bedstraw ([13]; Rate 250 g/ha, Postemergence)
4: Plant response rating (0 to 10; 0 is no effect, 10 is complete control), Blackgrass ([20]; Rate 250 g/ha, Postemergence)
9: Giant foxtail plant response rating (0 to 10 scale) [4, 26] | Giant foxtail plant response rating [4, 29]
0: Rice plant response rating [1, 21] | Rice plant response rating [1, 22] | Rice plant response rating [1, 23] | Plant response rating, Rice [1, 24] | Nutsedge plant response rating [2, 25] | Nutsedge plant response rating (0 to 10 scale) [2, 26] | Nutsedge plant response rating [2, 27] | Nutsedge plant response rating [2, 28] | Wheat plant response rating [3, 25] | Wheat plant response rating [3, 29] | Wheat plant response rating [3, 28] | Plant response rating (0 to 10; 0 is no effect, 10 is complete control), Wheat ([3]; Rate 250 g/ha, Postemergence) | Giant foxtail plant response rating [4, 27] | Giant foxtail plant response rating [4, 28] | Plant response rating (0 to 10; 0 is no effect, 10 is complete control), Giant foxtail ([4]; Rate 250 g/ha, Postemergence) | Morningglory plant response rating [5, 25] | Morningglory plant response rating (0 to 10 scale) [5, 26] | Morningglory plant response rating [5, 29] | Velvetleaf plant response rating [6, 25] | Velvetleaf plant response rating [6, 28] | Plant response rating (0 to 10; 0 is no effect, 10 is complete control), Velvetleaf ([6]; Rate 250 g/ha, Postemergence) | Soybean plant response rating [7, 25] | Soybean plant response rating (0 to 10 scale) [7, 26] | Soybean plant response rating [7, 29] | Crabgrass plant response rating [8, 27] | Crabgrass plant response rating [8, 28] | Redroot pigweed plant response rating [9, 25] | Redroot pigweed plant response rating (0 to 10 scale) [9, 26] | Redroot pigweed plant response rating [9, 27] | Redroot pigweed plant response rating [9, 28] | Plant response rating (0 to 10; 0 is no effect, 10 is complete control), Redroot pigweed ([9]; Rate 250 g/ha, Postemergence) | Sugarbeets plant response rating [10, 25] | Sugarbeets plant response rating (0 to 10 scale) [10, 26] | Sugarbeets plant response rating [10, 29] | Sugarbeets plant response rating [10, 27] | Sugarbeets plant response rating [10, 28] | Plant response rating (0 to 10; 0 is no effect, 10 is complete control), Sugarbeets ([10]; Rate 250 g/ha, Postemergence) | Corn plant response rating [11, 25] | Corn plant response rating (0 to 10 scale) [11, 26] | Corn plant response rating [11, 29] | Corn plant response rating [11, 27] | Corn plant response rating [11, 28] | Plant response rating (0 to 10; 0 is no effect, 10 is complete control), Corn ([11]; Rate 250 g/ha, Postemergence) | Rape plant response rating [12, 25] | Rape plant response rating (0 to 10 scale) [12, 26] | Rape plant response rating [12, 29] | Rape plant response rating [12, 27] | Rape plant response rating [12, 28] | Plant response rating (0 to 10; 0 is no effect, 10 is complete control), Rape ([12]; Rate 250 g/ha, Postemergence) | Bedstraw plant response rating [13, 25] | Bedstraw plant response rating (0 to 10 scale) [13, 26] | Bedstraw plant response rating [13, 29] | Bedstraw plant response rating [13, 27] | Bedstraw plant response rating [13, 28] | Barnyardgrass plant response rating [14, 21] | Barnyardgrass plant response rating [14, 22] | Barnyardgrass plant response rating [14, 23] | Plant response rating, Barnyardgrass [14, 24] | Wild oats plant response rating [15, 25] | Wild oats plant response rating [15, 29] | Wild oats plant response rating [15, 28] | Plant response rating (0 to 10; 0 is no effect, 10 is complete control), Wild oats ([15]; Rate 250 g/ha, Postemergence) | Ducksalad plant response rating [16, 21] | Ducksalad plant response rating [16, 22] | Ducksalad plant response rating [16, 23] | Plant response rating, Ducksalad [16, 24] | B. signalgrass plant response rating [17, 25] | B. signalgrass plant response rating (0 to 10 scale) [17, 26] | B. signalgrass plant response rating [17, 29] | B. signalgrass plant response rating [17, 27] | B. signalgrass plant response rating ([17]; Rate 125 g/ha, Postemergence, scale 0 (no effect) to 10 (complete control)) | Plant response rating, B. signalgrass ([17]; Rate 250 g/ha, Postemergence, scale 0 to 10, 0 is no effect, 10 is complete control) | S. Flatsedge plant response rating [18, 21] | S. Flatsedge plant response rating [18, 22] | S. Flatsedge plant response rating [18, 23] | S. Flatsedge plant response rating ([18]; Rate 500 g/ha, Pre-emergence, flood test species, scale 0 to 10 (0 no effect, 10 complete control)) | Cocklebur plant response rating [19, 25] | Cocklebur plant response rating (0 to 10 scale) [19, 26] | Cocklebur plant response rating [19, 29] | Cocklebur plant response rating [19, 27] | Cocklebur plant response rating [19, 28] | Plant response rating (0 to 10; 0 is no effect, 10 is complete control), Cocklebur ([19]; Rate 250 g/ha, Postemergence) | Blackgrass plant response rating [20, 25] | Blackgrass plant response rating (0 to 10 scale) [20, 26] | Blackgrass plant response rating [20, 27] | Blackgrass plant response rating [20, 28]
3: Blackgrass plant response rating [20, 29]
